Reference: patent US20240082347A1, “TREATMENT OF CORONAVIRUS” (priority 2021, published 2024)
Entries after “also recorded” stand apart in the source; their conditions may differ.

How the values were obtained:
[1] = tested on: SARS-CoV-2 binding to Human Aortic Endothelial Cells (HAoEC); format: cell-based
[2] = tested on: SARS-CoV-2 binding to human colorectal epithelial cells (Caco-2); format: cell-based
[3] = tested on: sheared HAoEC; assay: Transwell permeability assay (FITC-Dextran) after SARS-CoV-2 infection; format: cell-based, human; conditions: 0.0005 μM; SARS-CoV-2 infection 24 hours; FIG. 5A
[4] = tested on: VE-Cadherin expression on sheared HAoEC; format: cell-based, human; conditions: 0.0005 μM
[5] = tested on: VE-Cadherin in endothelial cells; assay: SDS-PAGE and Western blot of VE-Cadherin after ex vivo infection assay; format: cell-based, human; conditions: healthy, infected and treated cells; 0.0005 μM
Description: Following the ex vivo infection assay, endothelial cells were lysed in RIPA buffer and stored at −20° C. until use. Samples were separated on a 10% SDS-PAGE gel. Following this, proteins were transferred onto a nitrocellulose membrane and blocked for 1 hour using 5% skimmed milk. The membrane was probed using anti-VE Cadherin primary antibody (Clone: F-8, Cat. No: sc-9989, 1:200, SantaCruz) and anti-GAPDH primary antibody (6000-4-1 mouse mAB, 1:2000, ProteinTech), overnight at 4° C. Anti-mouse IgG secondary antibodies (sc525405, 1:5000, SantaCruz) were used the following day. Proteins were detected using chemiluminescence.

[6] = target: T1, Recombinant integrin αVβ3 (binding of SARS-CoV-2 spike protein) (Homo sapiens, UniProt P05106+P06756); assay: Fluorescent-based protein interaction assay, spike protein and αVβ3; conditions: FIG. 8
T1 construct: purchased BioTechne 3050-AV-050
T1 sequence (P06756 31-992 limits assumed): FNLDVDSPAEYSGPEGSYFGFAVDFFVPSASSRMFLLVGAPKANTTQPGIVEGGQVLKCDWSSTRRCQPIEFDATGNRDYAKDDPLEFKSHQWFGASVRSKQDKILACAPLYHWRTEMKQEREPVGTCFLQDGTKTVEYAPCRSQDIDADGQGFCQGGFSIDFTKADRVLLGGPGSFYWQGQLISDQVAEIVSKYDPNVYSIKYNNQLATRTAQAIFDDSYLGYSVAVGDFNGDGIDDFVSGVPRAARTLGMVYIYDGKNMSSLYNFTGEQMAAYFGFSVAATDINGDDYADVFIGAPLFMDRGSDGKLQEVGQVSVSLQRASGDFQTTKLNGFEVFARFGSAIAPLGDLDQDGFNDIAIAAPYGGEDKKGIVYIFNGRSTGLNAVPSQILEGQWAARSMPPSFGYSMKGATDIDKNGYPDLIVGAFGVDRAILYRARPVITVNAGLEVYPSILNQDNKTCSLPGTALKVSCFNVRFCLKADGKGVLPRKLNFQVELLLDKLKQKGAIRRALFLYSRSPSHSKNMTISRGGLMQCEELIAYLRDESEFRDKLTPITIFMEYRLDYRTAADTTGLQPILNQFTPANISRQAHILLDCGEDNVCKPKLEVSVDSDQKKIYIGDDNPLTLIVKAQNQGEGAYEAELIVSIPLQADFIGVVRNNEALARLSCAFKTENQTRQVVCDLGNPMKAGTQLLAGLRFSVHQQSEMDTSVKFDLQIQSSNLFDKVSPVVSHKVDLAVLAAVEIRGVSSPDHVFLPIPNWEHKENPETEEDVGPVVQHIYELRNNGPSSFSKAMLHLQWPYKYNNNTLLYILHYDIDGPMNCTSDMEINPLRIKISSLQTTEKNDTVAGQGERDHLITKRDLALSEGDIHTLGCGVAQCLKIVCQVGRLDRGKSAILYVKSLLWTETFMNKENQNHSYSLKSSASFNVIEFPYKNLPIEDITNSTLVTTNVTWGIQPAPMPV
T1 sequence (P05106 27-718 limits assumed): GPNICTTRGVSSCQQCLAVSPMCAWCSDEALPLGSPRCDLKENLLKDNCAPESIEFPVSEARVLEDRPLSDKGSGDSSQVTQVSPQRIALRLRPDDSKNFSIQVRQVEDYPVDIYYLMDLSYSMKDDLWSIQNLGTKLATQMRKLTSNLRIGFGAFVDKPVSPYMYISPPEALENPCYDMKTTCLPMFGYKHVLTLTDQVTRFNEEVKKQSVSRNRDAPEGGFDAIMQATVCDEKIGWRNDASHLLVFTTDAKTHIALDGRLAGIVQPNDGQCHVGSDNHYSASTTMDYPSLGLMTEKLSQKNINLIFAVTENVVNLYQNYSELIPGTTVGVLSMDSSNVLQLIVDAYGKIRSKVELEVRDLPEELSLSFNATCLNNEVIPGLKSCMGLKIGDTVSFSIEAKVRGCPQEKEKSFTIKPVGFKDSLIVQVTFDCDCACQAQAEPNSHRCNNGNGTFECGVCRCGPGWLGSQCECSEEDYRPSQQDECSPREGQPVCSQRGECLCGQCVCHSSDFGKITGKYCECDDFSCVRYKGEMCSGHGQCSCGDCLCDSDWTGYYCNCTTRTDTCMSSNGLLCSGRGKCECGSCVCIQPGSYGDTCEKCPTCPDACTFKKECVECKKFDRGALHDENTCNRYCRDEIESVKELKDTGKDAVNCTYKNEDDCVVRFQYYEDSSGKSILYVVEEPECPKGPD

Compound | SARS-CoV-2 binding to endothelial cells, dose response [1] | virus (SARS-CoV-2) attachment to human vascular endothelial cells [1] | SARS-CoV-2 binding to human colorectal epithelial cells [2] | endothelial barrier permeability (FITC-Dextran, 40 kDa) [3] | VE-Cadherin surface expression (mean fluorescence), marker of barrier integrity [4] | internalisation of VE-Cadherin following SARS-CoV-2 infection [4] | Total VE-Cadherin [5] | viral (SARS-CoV-2) attachment to human vascular endothelial cells [1] | recombinant spike protein binding to integrin αVβ3, comparison of GLPG0187 with Cilengitide [6]
CC(C)[C@H]1C(=O)N[C@@H](CCCN=C(N)N)C(=O)NCC(=O)N[C@@H](CC(=O)O)C(=O)N[C@H](Cc2ccccc2)C(=O)N1C [Cilengitide, cyclo(-RGDf(NMe)V-)] | in a dose-dependent manner; also recorded: significantly prevents both attachment to the host and disruption of barrier integrity; also recorded: Statistical significance was found between the no drug control and each Cilengitide treated group | dose dependently inhibits virus (SARS-CoV-2) attachment to human vascular endothelial cells | effectively reduces SARS-CoV-2 binding to human colorectal epithelial cells | limited the occurrence of barrier permeability; also recorded: restored after treating cells with Cilengitide | prevented VE-cadherin reduction during infection; also recorded: returning VE-cadherin levels back to uninfected levels; also recorded: re-established the barrier integrity; also recorded: barrier permeability was restored back to uninfected levels | internalisation of VE-Cadherin is prevented | Total VE-Cadherin remains consistent |  | 
COc1ccc(S(=O)(=O)N[C@@H](CNc2nc(C)nc(N3CCC(c4ccc5c(n4)NCCC5)CC3)c2C)C(=O)O)cc1 [GLPG0187] |  |  |  |  |  |  |  | failed to inhibit viral (SARS-CoV-2) attachment to human vascular endothelial cells | Cilengitide is significantly more effective
CNc1cccc(CCOc2ccc3c(c2)CN(CC(F)(F)F)C(=O)[C@H](CC(=O)O)C3)n1 [SB-273005] |  |  |  |  |  |  |  | failed to inhibit viral (SARS-CoV-2) attachment to human vascular endothelial cells; also recorded: unsuccessful at reducing SARS-CoV-2 binding to human endothelial cells | 
